In US11339193B2, “CDP protein secretion inhibitors” (KEZAR LIFE SCIENCES, priority 2018, dated 2022):
Numbered stars: 1 amine (or outer) side, 2 acyl side, 3 side chain; on linkers, the order of the positions; unused ones are H or OH. Square brackets hold non-standard residues; d marks the D form. Peptide text beside a SMILES is read from it. NMeTrp(1-(4-Br-benzyl)) = CN[C@@H](Cc1cn(Cc2ccc(Br)cc2)c2ccccc12)C(=O)O; NMeAla(5-Cl-benzothien-3-yl) = CN[C@@H](Cc1csc2ccc(Cl)cc12)C(=O)O; Ala(1-cyclohexenyl) = N[C@@H](CC1=CCCCC1)C(=O)O; Butanoyl(2R-oxy,4-CN) = N#CCC[C@@H](O)C(=O)O; NMe3Pal(5-F) = CN[C@@H](Cc1cncc(F)c1)C(=O)O; X22 = CCCC[C@@H](C)C[C@H](N[*:1])C(=O)[*:2]; NMePhe(4-F) = CN[C@@H](Cc1ccc(F)cc1)C(=O)O; X28 = CCCC[C@H](C)C[C@H](N[*:1])C(=O)[*:2]; Nva(5,5,5-F3) = N[C@@H](CCC(F)(F)F)C(=O)O; Abu(4,4,4-F3) = N[C@@H](CC(F)(F)F)C(=O)O; NMeL = CN[C@@H](CC(C)C)C(=O)O; NMeA = CN[C@@H](C)C(=O)O; dLac = C[C@@H](O)C(=O)O

Tests used:
Format in all cases: cell-based
[1] = test system: PD1-ss+10aa/Gaussia Luciferase; test: Dox induced PD1-ss-Gluc assay; details: Flp-In 293 T-REx cells, doxycycline, 24 hours; read-out: PD1ss Gluc IC50
How it was run: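 Stable Flp-In 293 T-REx line expressing doxycycline-inducible Gaussia luciferase fused to the PD1 signal sequence plus 10 amino acids. Cells plated the day before, then exposed to compound dilutions in DMSO/media containing doxycycline at 37 °C, 5% CO2.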

[2] = test system: TNFα-FL/Gaussia Luciferase; test: Dox induced TNFα-FL-Gluc assay; details: Flp-In 293 T-REx cells, doxycycline, 24 hours; read-out: TNFa FL Gluc IC50
How it was run: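 Stable Flp-In 293 T-REx line expressing full-length TNFα (aa 1-233) fused at its C-terminus to Gaussia luciferase under doxycycline-inducible control. Cells plated the day before, then given compound dilutions in DMSO/media containing doxycycline and incubated at 37 °C, 5% CO2.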

[3] = test system: NCI-H929 multiple myeloma cell line; test: H929 assay (cell viability, Celltiter-Glo); details: Homo sapiens, NCI-H929; 48 hours, cell viability; read-out: H929 EC50
How it was run: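 Cells plated in RPMI 1640 with 10% FBS and 2 mM glutamine, treated with compound dilutions in DMSO/media. Incubation 48 h at 37° C, 5% CO2. Viability from luciferase luminescence signal.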

[4] = test system: Prl-ss+10aa/Gaussia Luciferase; test: Prl-ss-Gluc assay (constitutively active or 24 hr Dox inducible); details: Flp-In 293 T-REx cells, 24 hours; read-out: Prl IC50
Text: Constitutively Active Prl-ss-Gluc Assay
Flp-In 293 T-REx™ cells were transfected with pcDNA™5/FRT plasmid inserted with cDNA encoding Gaussia Luciferase fused to the 3′ end of cDNA encoding Prl signal sequence plus 10 amino acids (N-[…]-C) (SEQ ID NO:4). Transfected cells were selected for resistance to the selectable markers Hygromycin and Blasticidin to create a stable cell line that constitutively expressed the Prlss+10aa/Gaussia Luciferase fusion protein. The day before assay, cells were trypsinized and plated in 384-well tissue culture plates. The next day, culture media was removed from the wells and replaced with fresh media. Compound dilutions in DMSO/media were added to the wells and incubated at 37° C., 5% CO2.
24 hr Dox Inducible Prl-ss-Gluc Assay
Flp-In 293 T-REx™ cells were transfected with pcDNA™5/FRT/TO plasmid inserted with cDNA encoding Gaussia Luciferase fused to the 3′ end of cDNA encoding Prl signal sequence plus 10 amino acids (N-[…]-C) (SEQ ID NO:5). Transfected cells were selected for resistance to the selectable markers Hygromycin and Blasticidin to create a stable cell line that contained the Prl-ss+10aa/Gaussia Luciferase cDNA insert whose expression was regulated under the T-REx™ system. The day before assay, cells were trypsinized and plated in 384-well tissue culture plates. The next day, compound dilutions in DMSO/media containing doxycycline were added to the wells and incubated at 37° C., 5% CO2.

[5] = test system: VCAMss+10aa/Gaussia Luciferase; test: VCAM-ss-Gluc assay (constitutively active or Dox induced); details: Flp-In 293 T-REx cells, 24 hours
Procedure: Assays Constitutively Active VCAM-ss-Gluc Assay
Transfected cells were selected for resistance to the selectable markers Hygromycin and Blasticidin to create a stable cell line that constitutively expressed the VCAMss+ 10aa/Gaussia Luciferase fusion protein. The day before assay, cells were trypsinized and plated in 384-well tissue culture plates. The next day, culture media was removed from the wells and replaced with fresh media. Compound dilutions in DMSO/media were added to the wells and incubated at 37° C., 5% CO2.
Dox Induced VCAM-ss-Gluc Assay
Transfected cells were selected for resistance to the selectable markers Hygromycin and Blasticidin to create a stable cell line that contained the VCAMss+10aa/Gaussia Luciferase cDNA insert whose expression was regulated under the T-REx™ system. The day before assay, cells were trypsinized and plated in 384-well tissue culture plates. The next day, compound dilutions in DMSO/media containing doxycycline were added to the wells and incubated at 37° C., 5% CO2.

[6] = test system: JJN3 plasma cell leukemia cell line; test: JJN-3 assay (Alamar blue); details: Homo sapiens, 72 h
Procedure: (§1) BT474 is a human breast tumor cell line. JJN3 is a human plasma cell leukemia cell line. […] Cells were seeded at 100 000 cells/mL. Aliquots of 5000 cells (50 μL) were added to each well in black, clear bottom 96-well plates. Compounds or control (50 uL of 1% DMSO in cell culture medium) were added to the cells to the indicated final concentrations and cells were incubated for 72 h (unless otherwise specified). After incubation was complete, Alamar blue (10 uL of a 1 mg/mL solution) was added to each well and plates were incubated for 5 h. Fluorescence was then measured (excitation 545 nm, emission 590 nm) and is reported as […] normalized to DMSO control.

[7] = test system: U266B1 multiple myeloma cell line; test: U266 assay (cell viability, Celltiter-Glo); details: Homo sapiens, U-266
Procedure: Cells were plated in 384-well tissue culture plates and treated with compound dilutions in DMSO/media. Plates were incubated at 37° C., 5% CO2 for 48 hours. After 48 hours, Celltiter-Glo@ (Promega) was added to each well and luciferase signal was quantified using Tecan Infinite M1000 Pro for cell viability determination.

HER3ss-Gluc = test: HER3ss assay; details: HEK-293T T-rex cells, transient transfection, doxycycline, 24 h; read-out: HER3 ss IC50
Procedure: The mature domain of secreted luciferase from Gaussia princeps (GLuc) was cloned into pcDNA5/FRT/TO. The signal sequence plus four amino acids of the mature domain from HER3 ([…]) (SEQ ID NO:8) were cloned upstream of GLuc mature domain and used in transient transfection experiment. HEK-293T T-rex cells were cultured in Dulbecco's modified Eagle's medium with 10% FBS at 5% CO2. Cells were plated 1×10e6 cells per well in a 6-well plate and incubated for 6 h. Cells were transiently transfected with HER3ss-Gluc using Lipofectamine 2000 (Invitrogen). After overnight incubation, transfected cells were replated in a clear-bottomed, black 96-well plate at a density of 20,000 cells per well. Six hours after plating, the cells were treated with doxycycline (1 μg/ml) and increasing concentrations of the indicated compounds for 24 h. Secreted luciferase in the conditioned media was quantified by luminescence using the BioLux Gaussia Luciferase Assay Kit (New England Biolabs, Ipswich, Mass., USA) and a SpectraMax M5 plate reader (Molecular Devices).

[8] = test system: BT474 breast tumor cell line; test: BT474 assay (Alamar blue); details: Homo sapiens, BT-474, 72 h
Procedure: as §1

IC50 [1] [nM]	IC50 [2] [nM]	EC50 [3] [nM]	IC50 [4] [nM]	IC50 [5] [nM]	EC50 [6] [nM]	EC50 ([7]; 48 hours, cell viability) [nM]	IC50 (HER3ss-Gluc) [nM]	EC50 [8] [nM]	EC50 ([7]; I.A.) [nM]	Compound
26	112	834	1500		154			832		CC(C)C[C@@H]1NC(=O)[C@H](Cc2cn(Cc3ccc(Br)cc3)c3ccccc23)N(C)C(=O)[C@H](CCC(F)(F)F)NC(=O)[C@H](CC(C)C)N(C)C(=O)[C@H](CC(F)(F)F)NC(=O)[C@@H](CCC#N)OC(=O)[C@H](C)N(C)C1=O [C-57] (cyclo(L[NMeA][Butanoyl(2R-oxy,4-CN)][Abu(4,4,4-F3)][NMeL][Nva(5,5,5-F3)][NMeTrp(1-(4-Br-benzyl))]))
				1700						CCCC[C@H](C)C[C@@H]1NC(=O)[C@H](Cc2ccc(F)cc2)N(C)C(=O)[C@H](CC(C)C)NC(=O)[C@H](CC(C)C)N(C)C(=O)[C@H](CC(C)C)NC(=O)[C@@H](C)OC(=O)[C@H](C)N(C)C1=O [C-69] (cyclo(L[NMeL]L[NMePhe(4-F)][X28][NMeA][dLac]))
				354			445			CC(C)C[C@@H]1NC(=O)[C@H](Cc2c[nH]c3ccccc23)N(C)C(=O)[C@H](CC(C)C)NC(=O)[C@H](CC(C)C)N(C)C(=O)[C@H](CC(C)C)NC(=O)[C@@H](CCC#N)OC(=O)[C@H](C)N(C)C1=O [C-71] (HELM PEPTIDE1{L.[meA].[N#CCC[C@@H](O[*:1])C(=O)[*:2]].L.[meL].L.[meW]}$PEPTIDE1,PEPTIDE1,1:R1-7:R2$$$V2.0)
				327			226			CC(C)C[C@@H]1NC(=O)[C@H](Cc2cn(Cc3ccccc3)c3ccccc23)N(C)C(=O)[C@H](CC(C)C)NC(=O)[C@H](CC(C)C)N(C)C(=O)[C@H](CC(C)C)NC(=O)[C@@H](C)OC(=O)[C@H](C)N(C)C1=O [C-72] (HELM PEPTIDE1{L.[meA].[C[C@@H](O[*:1])C(=O)[*:2]].L.[meL].L.[CN([C@@H](Cc1cn(Cc2ccccc2)c2ccccc12)C(=O)[*:2])[*:1]]}$PEPTIDE1,PEPTIDE1,1:R1-7:R2$$$V2.0)
				3150						CC(C)C[C@@H]1NC(=O)[C@H](Cc2cn(Cc3ccccc3)nn2)N(C)C(=O)[C@H](CC(C)C)NC(=O)[C@H](CC(C)C)N(C)C(=O)[C@H](CC(C)C)NC(=O)[C@@H](CCC#N)OC(=O)[C@H](C)N(C)C1=O [C-73]
149	605	5260	19800				30		> 25000	CC(C)C[C@@H]1NC(=O)[C@H](Cc2csc3ccc(Cl)cc23)N(C)C(=O)[C@H](CC(C)C)NC(=O)[C@H](CC(C)C)N(C)C(=O)[C@H](CC2=CCCCC2)NC(=O)[C@@H](CCC#N)OC(=O)[C@H](C)N(C)C1=O [C-99] (cyclo(L[NMeA][Butanoyl(2R-oxy,4-CN)][Ala(1-cyclohexenyl)][NMeL]L[NMeAla(5-Cl-benzothien-3-yl)]))

Continued, molecule first:

Compound	IC50 [1] [nM]	IC50 [2] [nM]	EC50 [3] [nM]	IC50 [4] [nM]	IC50 [5] [nM]	EC50 [6] [nM]	EC50 ([7]; 48 hours, cell viability) [nM]	IC50 (HER3ss-Gluc) [nM]	EC50 [8] [nM]	EC50 ([7]; I.A.) [nM]
COc1ccc(Cn2cc(C[C@H]3C(=O)N[C@@H](CC(C)C)C(=O)N(C)[C@@H](C)C(=O)O[C@H](C)C(=O)N[C@@H](CC(C)C)C(=O)N(C)[C@@H](CC(C)C)C(=O)N[C@@H](CC(C)C)C(=O)N3C)c3ccccc32)cc1 [C-11] (HELM PEPTIDE1{L.[meA].[C[C@@H](O[*:1])C(=O)[*:2]].L.[meL].L.[COc1ccc(Cn2cc(C[C@@H](C(=O)[*:2])N(C)[*:1])c3ccccc32)cc1]}$PEPTIDE1,PEPTIDE1,1:R1-7:R2$$$V2.0)	52	295	2560	4500	2090	792	23700			
CCCC[C@@H](C)C[C@@H]1NC(=O)[C@H](Cc2ccc(F)cn2)N(C)C(=O)[C@H](CC(C)C)NC(=O)[C@H](CC(C)C)N(C)C(=O)[C@H](C[C@H](C)CCCC)NC(=O)[C@@H](CCC#N)OC(=O)[C@H](C)N(C)C1=O [C-17]	149	274	2200	6340	14		9130			
CCCC[C@@H](C)C[C@@H]1NC(=O)[C@H](Cc2cncc(F)c2)N(C)C(=O)[C@H](CC(C)C)NC(=O)[C@H](CC(C)C)N(C)C(=O)[C@H](C[C@H](C)CCCC)NC(=O)[C@@H](CCC#N)OC(=O)[C@H](C)N(C)C1=O [C-24] (cyclo(L[NMe3Pal(5-F)][X22][NMeA][Butanoyl(2R-oxy,4-CN)][X22][NMeL]))	86	131	1480	1660	22		5540			
CC(C)C[C@@H]1NC(=O)[C@H](Cc2cn(Cc3ccc(F)cc3)c3ccccc23)N(C)C(=O)[C@H](CC(C)C)NC(=O)[C@H](CC(C)C)N(C)C(=O)[C@H](CC(C)C)NC(=O)[C@@H](C)OC(=O)[C@H](C)N(C)C1=O [C-30] (HELM PEPTIDE1{L.[meA].[C[C@@H](O[*:1])C(=O)[*:2]].L.[meL].L.[CN([C@@H](Cc1cn(Cc2ccc(F)cc2)c2ccccc12)C(=O)[*:2])[*:1]]}$PEPTIDE1,PEPTIDE1,1:R1-7:R2$$$V2.0)						14200				
COc1ccccc1Cn1cc(C[C@H]2C(=O)N[C@@H](CC(C)C)C(=O)N(C)[C@@H](C)C(=O)O[C@H](CCC#N)C(=O)N[C@@H](CC(C)C)C(=O)N(C)[C@@H](CC(C)C)C(=O)N[C@@H](CC(C)C)C(=O)N2C)c2ccccc21 [C-32] (HELM PEPTIDE1{L.[meA].[N#CCC[C@@H](O[*:1])C(=O)[*:2]].L.[meL].L.[COc1ccccc1Cn1cc(C[C@@H](C(=O)[*:2])N(C)[*:1])c2ccccc21]}$PEPTIDE1,PEPTIDE1,1:R1-7:R2$$$V2.0)	203	1050	4720	14200				161	5280	
CC(C)C[C@@H]1NC(=O)[C@H](Cc2ccccc2)N(C)C(=O)[C@H](CC(C)C)NC(=O)[C@H](CC(C)C)N(C)C(=O)[C@H](CC(C)C)NC(=O)[C@@H](C)OC(=O)[C@H](C)N(C)C1=O [C-34] (HELM PEPTIDE1{L.[meA].[C[C@@H](O[*:1])C(=O)[*:2]].L.[meL].L.[meF]}$PEPTIDE1,PEPTIDE1,1:R1-7:R2$$$V2.0)	1050		6540		274			963		
